The test concerns the target human P2X7 receptor (Homo sapiens, UniProt Q99572, R270H/Y155H). In words: Evaluation of human P2X7 receptor inhibitory activity (Yo-Pro uptake, BzATP stimulation, FLIPR TETRA). Type of test: cell-based. On the procedure:
Stably expressing cell line (1321N1 cell transfected with the human P2X7 receptor gene (GenBank accession number NM_002562.5 including T606C and G952A SNP)) was used. The cells were seeded in a 384-well microtiter plate at a concentration of 8000 cells/well and cultured in the medium (10% fetal bovine serum, 25 mM HEPES, 1% penicillin and streptomycin in DMEM) for one day at 37° C. under 5% carbon dioxide atmosphere. After replacing with 20 μL of the HBSS buffer (20 mM HEPES, 55.6 mM D-glucose, 1×HBSS(−), pH7.4-7.5), 15 μL of 17.3 μM Yo-Pro solution in the HBSS buffer was added. The plate was placed in high-throughput cellular screening system FLIPR TETRA (Molecullar Devices, LLC.) and 15 μL of 130 μM BzATP solution in the HBSS buffer was added. Measurement of fluorescence intensity by FLIPR TETRA was started. After eight minutes, 15 μL of DMSO solutions containing different concentrations of the compound of the present invention as prepared by dilution with the HBSS buffer were dispensed to each well through the built-in automatic dispenser, and the measurement of fluorescence intensity was continued for 20 minutes. […] Changing values of fluorescence intensity by the compound of the present invention were calculated by difference between maximum and minimum fluorescence intensity for 20 minutes. Inhibition ratios (%) were calculated from the following equation:
[formula] IC50 was calculated using logistic approximation.

Where [1] appears, read: 1321N1 cells stably expressing human P2X7 receptor, BzATP stimulation, Yo-Pro uptake, read-out: IC50 (antagonistic activity for the human P2X7 receptor), class symbol.
Setting [2] is: antagonistic activity for the human P2X7 receptor, read-out: IC50.
Setting [3] is: 1321N1 cells stably expressing human P2X7 receptor, BzATP stimulation, Yo-Pro uptake, read-out: IC50 (antagonistic activity for the human P2X7 receptor).

Like-named read-outs stand apart in the source and are kept apart here. Some results are limits rather than exact numbers.

Take `COc1c(C)ccc(Nc2nc(=O)c(OC)cn2Cc2ccc(F)c(Cl)c2)c1C` [Compound I-0419]: the IC50 under setting [1] was below 0.01 µM. As for `CCOc1cn(Cc2ccccc2)c(Nc2cc(C)c(OC)cc2C)nc1=O` [Compound I-0713], the IC50 under setting [2] is below 0.01 µM.

Turning to `COCc1cn(Cc2cc(F)c(F)c(F)c2)c(Nc2cc(-c3nnco3)ccc2C)nc1=O` [Compound I-1131], the IC50 under setting [2] was 0.01 to 0.1 µM. Regarding `COc1cn(Cc2ccc(F)cc2)c(Nc2cc(Oc3ccccn3)ccc2C)nc1=O` [Compound I-0898], the IC50 under setting [2] fell in the range of 0.01 to 0.1 µM.

Turning to `CCc1ccc(OC)cc1Nc1nc(=O)c(OC)cn1Cc1ccccc1` [Compound I-0236], the IC50 under setting [1] was in the range of 0.01 to 0.1 µM. For the compound `COc1cnc(Nc2cccc(Cl)c2C)n(Cc2ccccc2)c1=O` [Compound I-0967], the IC50 under setting [3] is 0.45 µM. With `COc1cn(Cc2cc(F)c(F)c(F)c2)c(Nc2cc(OC(F)F)c(C)cc2C)nc1=O` [Compound I-0805], the IC50 under setting [2] is below 0.01 µM. Same read-out and setting: as for `Cc1cc(C)c(Nc2nc(=O)c(F)cn2Cc2ccc(F)c(Cl)c2)cc1CO` [Compound I-1089], the figure is below 0.01 µM.

`COc1cn(Cc2cc(F)cc(F)c2)c(Nc2cc(OC(C)C)ccc2C)nc1=O` [Compound I-0556]: the IC50 under setting [1] was in the range of 0.01 to 0.1 µM. With `Cc1ccc(C)c(Nc2nc(=NC#N)c(F)cn2Cc2cc(F)c(F)c(F)c2)c1` [Compound I-1293], the IC50 under setting [2] was below 0.01 µM. Take `COc1cc(Nc2nc(=O)c(OC)cn2Cc2ccc(F)c(Cl)c2)c(C)cc1Cl` [Compound I-0536]: the IC50 under setting [1] was below 0.01 µM.

`CCOc1cc(C)c(Nc2nc(=O)c(OC)cn2Cc2ccc(F)c(F)c2)cc1C` [Compound I-0260]: the IC50 under setting [1] was below 0.01 µM. The same measure, in the same setting: the figure for `COc1cc(C)c(Nc2nc(=O)c(Cl)cn2Cc2ccc(F)cc2)cc1OC` [Compound I-0406] is below 0.01 µM. Regarding `Cn1ccc2c(Nc3nc(=O)c(F)cn3Cc3cc(F)cc(F)c3)cccc21` [Compound I-1021], the IC50 under setting [2] was below 0.01 µM. On the same count and under the same terms, as for `O=c1nc(Nc2cccc3c(O)cccc23)n(Cc2ccc(F)c(F)c2)cc1F` [Compound I-1115], the figure is below 0.01 µM.

For the compound `COc1cn(Cc2ccccc2)c(Nc2cccc(C)c2C)nc1=O` [Compound I-0095], the IC50 under setting [1] fell in the range of 0.01 to 0.1 µM.

As to `Cc1c(Nc2nc(=O)cnn2Cc2cc(F)c(F)c(F)c2)ccc2[nH]ccc12` [Compound I-1263], the IC50 under setting [3] was found to be 0.003 µM.

Turning to `Cc1c(Cl)cccc1Nc1nc(=O)c(F)cn1Cc1cc(F)c(F)c(F)c1` [Compound I-1219], under setting [2], the IC50 is below 0.01 µM. Regarding `Cc1nc2cc(C)c(Nc3nc(=O)c(C)nn3Cc3cc(F)c(F)c(F)c3)cc2s1` [Compound I-1267], the IC50 under setting [3] was 0.01 µM.

On to `COc1cn(Cc2cc(F)cc(F)c2)c(Nc2cccc3c2ccc(=O)n3C)nc1=O` [Compound I-0882], for which the IC50 under setting [2] lay within 0.5 to 1 µM. For `Cc1nc2cc(C)c(Nc3nc(=O)c(F)cn3Cc3ccc(F)c(Cl)c3)cc2s1` [Compound I-0778], the IC50 under setting [2] is below 0.01 µM. Consider `COc1cn(Cc2cc(F)c(F)c(F)c2)c(Nc2cc(C)ccc2C)nc1=O` [Compound I-0571], for which the IC50 under setting [1] is below 0.01 µM. For the compound `Cc1cc(C)c(Nc2nc(=O)c(Cl)cn2Cc2ccccc2)cc1C` [Compound I-0307], under setting [1], the half-maximal inhibitory concentration (IC50) was below 0.01 µM. With `COCc1ccc(C)c(Nc2nc(=O)c(F)cn2Cc2cc(F)c(F)c(F)c2)c1` [Compound I-1086], the half-inhibitory concentration (IC50) under setting [2] was below 0.01 µM. Consider `Cc1c(Cl)cccc1Nc1nc(=O)c(CC(=O)NCc2ccccc2)cn1Cc1ccccc1` [Compound I-0341], for which the IC50 under setting [1] lay within 0.1 to 0.5 µM. As to `CCc1cc(F)c(OC)cc1Nc1nc(=O)c(OC)cn1Cc1cc(F)cc(F)c1` [Compound I-0817], the IC50 under setting [3] turned out to be 0.004 µM. Consider `CCOc1ccc(C)c(Nc2nc(=O)c(F)cn2Cc2ccc(F)c(Cl)c2)c1` [Compound I-0998], for which the IC50 under setting [2] was below 0.01 µM. Consider `COc1cn(Cc2ccccc2)c(Nc2cc3c(cc2C)OCCO3)nc1=O` [Compound I-0287], for which the IC50 under setting [1] lay within 0.01 to 0.1 µM.

For `COc1cn(Cc2cc(F)cc(F)c2)c(Nc2cc(-c3cccn(C)c3=O)c(F)cc2C)nc1=O` [Compound I-0592], the IC50 under setting [2] was in the range of 0.01 to 0.1 µM. On to `COc1cn(Cc2ccccc2)c(Nc2cc(C(C)(C)C)ccc2C)nc1=O` [Compound I-0500], for which the IC50 under setting [1] was in the range of 0.01 to 0.1 µM.

For `COc1cn(Cc2cccc(Cl)c2)c(Nc2cc3[nH]ncc3cc2C)nc1=O` [Compound I-0490], the IC50 under setting [1] is below 0.01 µM. On the same count and under the same terms, the figure for `CCc1ccc(OC)cc1Nc1nc(=O)c(OC)cn1Cc1ccc(F)c(F)c1` [Compound I-0255] is below 0.01 µM.

Turning to `COc1ccc(Nc2nc(=O)cnn2Cc2ccc(F)cc2)c(C)c1` [Compound I-1273], the IC50 under setting [2] is below 0.01 µM. For the compound `COc1cn(Cc2ccccc2)c(Nc2cncc(Cl)c2C)nc1=O` [Compound I-0185], under setting [3], the IC50 is 0.27 µM. `COc1cn(Cc2ccccc2Cl)c(Nc2cc(C)c(Cl)cc2C)nc1=O` [Compound I-0170]: the IC50 under setting [1] lay in the range of 0.1 to 0.5 µM. With `COc1cn(Cc2ccc(F)c(F)c2)c(Nc2ccc(OC(F)F)cc2C)nc1=O` [Compound I-0516], the half-maximal inhibitory concentration (IC50) under setting [1] fell in the range of 0.01 to 0.1 µM. For the compound `COc1cc(C)c(Nc2nc(=O)c(OC)cn2Cc2ccc(F)c(Cl)c2)cc1C` [Compound I-0230], the IC50 under setting [1] is below 0.01 µM.

For the compound `COc1cn(Cc2cccc(Cl)c2)c(Nc2cccc(C)c2Cl)nc1=O` [Compound I-0481], the half-maximal inhibitory concentration (IC50) under setting [1] fell in the range of 0.01 to 0.1 µM. With `COc1cn(Cc2ccc(F)c(Cl)c2)c(Nc2ccccc2Cc2ccccn2)nc1=O` [Compound I-0595], the half-inhibitory concentration (IC50) under setting [2] was below 0.01 µM. `COc1cn(Cc2cc(F)cc(F)c2)c(Nc2cccc3c(=O)n(C)ccc23)nc1=O` [Compound I-0905]: the IC50 under setting [2] is 0.1 to 0.5 µM. For `COc1cn(Cc2ccccc2)c(Nc2cc(-c3cccn(C)c3=O)ccc2C)nc1=O` [Compound I-0587], under setting [2], the IC50 is 0.01 to 0.1 µM.

Regarding `COc1cc(C)c(Nc2nc(=O)c(C#N)cn2Cc2ccc(F)c(F)c2)cc1C` [Compound I-1160], under setting [2], the IC50 is below 0.01 µM. For `COc1cn(Cc2cccc(C#N)c2)c(Nc2cccc(Cl)c2C)nc1=O` [Compound I-0047], the IC50 under setting [1] lay in the range of 0.5 to 1 µM. As to `CCc1c(Nc2nc(=O)c(OC)cn2Cc2ccccc2)cc(OC)cc1OC` [Compound I-0361], the IC50 under setting [1] is below 0.01 µM. Turning to `COc1cn(Cc2cc(F)cc(Cl)c2)c(Nc2cc3c(cc2C)OCCO3)nc1=O` [Compound I-0710], the IC50 under setting [2] was 0.01 to 0.1 µM. Take `Cc1cc(N2CCOCC2)ccc1Nc1nc(=O)ccn1Cc1cc(F)c(F)c(F)c1` [Compound I-1149]: the IC50 under setting [2] fell in the range of 0.01 to 0.1 µM. On to `CNC(=O)Cc1cn(Cc2ccccc2)c(Nc2cccc(Cl)c2C)nc1=O` [Compound I-0330], for which the IC50 under setting [1] is 0.1 to 0.5 µM. As to `COCCOc1ccc(C)c(Nc2nc(=O)c(F)cn2Cc2cc(F)c(F)c(F)c2)c1` [Compound I-1179], under setting [2], the IC50 was below 0.01 µM. As for `COc1cc(C)cc(Nc2nc(=O)c(OC)cn2Cc2ccc(F)c(F)c2)c1C` [Compound I-0404], the IC50 under setting [1] is below 0.01 µM. On to `COc1cnc(Nc2cc3sc(C)nc3cc2C)n(Cc2ccc(F)c(Cl)c2)c1=O` [Compound I-0987], for which, under setting [3], the IC50 turned out to be 0.11 µM. `COc1cn(Cc2ccccc2)c(Nc2cc(CO)c(C)cc2C)nc1=O` [Compound I-0278]: the IC50 under setting [1] is below 0.01 µM. As to `Cc1ccc(N2CC3CCC2C3)cc1Nc1nc(=O)c(F)cn1Cc1cc(F)c(F)c(F)c1` (stereo not drawn) [Compound I-1053], the IC50 under setting [2] fell in the range of 0.01 to 0.1 µM. As for `COc1cn(Cc2ccccc2C(F)(F)F)c(Nc2cccc(Cl)c2C)nc1=O` [Compound I-0294], under setting [3], the IC50 worked out at 0.25 µM. `COc1cn(Cc2ccc(F)c(Cl)c2)c(Nc2cccc3sccc23)nc1=O` [Compound I-0486]: under setting [1], the IC50 is below 0.01 µM. Take `COc1cn(Cc2ccccc2)c(Nc2cccc(C)c2F)nc1=O` [Compound I-0762]: the IC50 under setting [2] is 0.1 to 0.5 µM. For the compound `Cc1cc(OC(F)F)c(C)cc1Nc1nc(=O)c(F)cn1Cc1ccc(F)c(F)c1` [Compound I-0835], the IC50 under setting [2] was below 0.01 µM. On to `COCc1cn(Cc2cc(F)c(F)c(F)c2)c(Nc2cc(Cl)c(OC)cc2C)nc1=O` [Compound I-1146], for which, under setting [2], the IC50 fell in the range of 0.01 to 0.1 µM. As for `Cc1c(Cl)cccc1Nc1nc(=O)c(C(=O)NC2CCOCC2)cn1Cc1ccccc1` [Compound I-0019], the half-inhibitory concentration (IC50) under setting [3] was 0.049 µM. Regarding `Cc1nc2cc(C)c(Nc3nc(=O)c(F)cn3Cc3cc(F)cc(F)c3)cc2s1` [Compound I-1009], the IC50 under setting [2] is below 0.01 µM. On to `CCOc1cn(Cc2ccccc2)c(Nc2cccc(Cl)c2C)nc1=O` [Compound I-0137], for which the IC50 under setting [1] was in the range of 0.01 to 0.1 µM. Turning to `Cc1cccc(Nc2nc(=O)c(F)cn2Cc2cccc(Cl)c2)c1C` [Compound I-0224], the IC50 under setting [1] was below 0.01 µM. For `CCOc1cc(Nc2nc(=O)c(OC)cn2Cc2ccc(F)c(Cl)c2)c(C)cc1F` [Compound I-0919], the IC50 under setting [2] was 0.01 to 0.1 µM. With `COc1cn(Cc2ccc(F)c(F)c2)c(Nc2cc(-c3cscn3)ccc2C)nc1=O` [Compound I-0751], the IC50 under setting [2] was below 0.01 µM. For `COc1cn(Cc2ccccc2)c(Nc2cc(S(=O)(=O)Nc3ccccc3)c(F)cc2C)nc1=O` [Compound I-0415], under setting [1], the IC50 fell in the range of 0.5 to 1 µM. Turning to `COc1cn(Cc2ccccc2)c(Nc2cc(Br)ccc2Cl)nc1=O` [Compound I-0144], the concentration for half-maximal inhibition (IC50) under setting [1] fell in the range of 0.1 to 0.5 µM. Take `COc1cn(Cc2ccc(F)c(Cl)c2)c(Nc2ccc(OC(F)(F)F)cc2C)nc1=O` [Compound I-0241]: under setting [1], the half-maximal inhibitory concentration (IC50) was 0.01 to 0.1 µM.

For orientation: IC50 means the concentration at which inhibition is half-maximal.

The values above are taken from patent US10774051B2, “6-membered heterocyclic derivatives and pharmaceutical composition comprising the same” (Shionogi & Co., Ltd., priority 2015, dated 2020).
